Assay results as given in PubChem BioAssay (NCI).
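Assay format: 96-well plates, 48-hour exposure. The concentration for 50% growth inhibition is given as GI50. The concentration for full growth arrest is given as TGI.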

How the values were obtained:
Experiment in all cases: DTP human tumour cell line panel, 48 h; in the data active = GI50 below about 0.43 µM; inactive = the rest
[1] = tested on: 786-0 renal
[2] = tested on: A498 renal
[3] = tested on: A549 NSCLC
[4] = tested on: ACHN renal
[5] = tested on: BT-549 breast
[6] = tested on: CAKI-1 renal
[7] = tested on: CCRF-CEM leukemia
[8] = tested on: COLO 205 colon
[9] = tested on: DU-145 prostate
[10] = tested on: EKVX NSCLC
[11] = tested on: HCC-2998 colon
[12] = tested on: HCT-116 colon
[13] = tested on: HCT-15 colon
[14] = tested on: HL-60(TB) leukemia
[15] = tested on: HOP-62 NSCLC
[16] = tested on: HOP-92 NSCLC
[17] = tested on: HS 578T breast
[18] = tested on: HT29 colon
[19] = tested on: IGROV1 ovarian
[20] = tested on: K-562 leukemia
[21] = tested on: KM12 colon
[22] = tested on: LOX IMVI melanoma
[23] = tested on: M14 melanoma
[24] = tested on: MALME-3M melanoma
[25] = tested on: MCF7 breast
[26] = tested on: MDA-MB-231 breast
[27] = tested on: MDA-MB-435
[28] = tested on: MOLT-4 leukemia
[29] = tested on: NCI-H226 lung
[30] = tested on: NCI-H23 lung
[31] = tested on: NCI-H460 lung
[32] = tested on: NCI-H522 lung
[33] = tested on: NCI/ADR-RES ovarian
[34] = tested on: OVCAR-3 ovarian
[35] = tested on: OVCAR-4 ovarian
[36] = tested on: OVCAR-5 ovarian
[37] = tested on: OVCAR-8 ovarian
[38] = tested on: PC-3 prostate
[39] = tested on: RPMI-8226 leukemia
[40] = tested on: SF-268 CNS
[41] = tested on: SF-295 CNS
[42] = tested on: SF-539 CNS
[43] = tested on: SK-MEL-2 melanoma
[44] = tested on: SK-MEL-28 melanoma
[45] = tested on: SK-MEL-5 melanoma
[46] = tested on: SK-OV-3 ovarian
[47] = tested on: SN12C renal
[48] = tested on: SNB-19 CNS
[49] = tested on: SNB-75 CNS
[50] = tested on: SR leukemia
[51] = tested on: SW-620 colon
[52] = tested on: T-47D breast
[53] = tested on: TK-10 renal
[54] = tested on: U251 CNS
[55] = tested on: UACC-257 melanoma
[56] = tested on: UACC-62 melanoma
[57] = tested on: UO-31 renal
[58] = tested on: RXF 393 renal

N#CC1=C(N)Oc2cc(O)ccc2C1c1cccc2ccccc12 (configuration not stated)
22.7 µM: TGI [2]
43 µM: TGI [54]
29.2 µM: TGI [38]
25.7 µM: TGI [12]
32.5 µM: TGI [31]
36.9 µM: TGI [7]
42.9 µM: TGI [46]
19.4 µM: TGI [45]
31.5 µM: TGI [35]
26.9 µM: TGI [13]
58.3 µM: TGI [47]
27.3 µM: TGI [56]
31.7 µM: TGI [15]
36.5 µM: TGI [42]
66.1 µM: TGI [37]
37.3 µM: TGI [48]
29.6 µM: TGI [5]
73 µM: TGI [17]
6.68 µM: TGI [27]
> 100 µM: TGI [3] | TGI [10] | TGI [21] | TGI [24] | TGI [51]
24.5 µM: TGI [25]
inactive: GI50 [1] 13.4 µM | GI50 [2] 5.25 µM | GI50 [3] 7.02 µM | GI50 [4] 17.2 µM | GI50 [5] 7.52 µM | GI50 [6] 8.55 µM | GI50 [7] 7 µM | GI50 [8] 16.5 µM | GI50 [9] 12.1 µM | GI50 [10] 17 µM | GI50 [11] 3 µM | GI50 [12] 6.52 µM | GI50 [13] 8.71 µM | GI50 [14] 3.16 µM | GI50 [15] 13.5 µM | GI50 [16] 3.78 µM | GI50 [17] 16.6 µM | GI50 [18] 8.89 µM | GI50 [19] 13.1 µM | GI50 [20] 3.68 µM | GI50 [21] 6.68 µM | GI50 [22] 14.8 µM | GI50 [23] 5.72 µM | GI50 [24] 25.8 µM | GI50 [25] 8.69 µM | GI50 [26] 11.8 µM | GI50 [27] 2.51 µM | GI50 [28] 5.58 µM | GI50 [29] 24.2 µM | GI50 [30] 10.2 µM | GI50 [31] 12.4 µM | GI50 [32] 6.08 µM | GI50 [33] 3.98 µM | GI50 [34] 4.07 µM | GI50 [35] 13.1 µM | GI50 [36] 14.6 µM | GI50 [37] 23.7 µM | GI50 [38] 5.21 µM | GI50 [39] 10.9 µM | GI50 [40] 14.5 µM | GI50 [41] 7.28 µM | GI50 [42] 16.5 µM | GI50 [43] 11.7 µM | GI50 [44] 12.7 µM | GI50 [45] 4.83 µM | GI50 [46] 18.1 µM | GI50 [47] 20.4 µM | GI50 [48] 16.3 µM | GI50 [49] 14.1 µM | GI50 [50] 3.26 µM | GI50 [51] 3.95 µM | GI50 [52] 17.2 µM | GI50 [53] 15.6 µM | GI50 [54] 16.6 µM | GI50 [55] 14.1 µM | GI50 [56] 12.6 µM | GI50 [57] 12.3 µM
14.8 µM: TGI [50]
13.9 µM: TGI [11]
45.6 µM: TGI [53]
29.7 µM: TGI [9]
28.8 µM: TGI [36]
82.3 µM: TGI [29]
35 µM: TGI [4]
38.2 µM: TGI [8]
22.8 µM: TGI [33]
24.3 µM: TGI [43]
23.7 µM: TGI [16]
11.7 µM: TGI [14]
16.6 µM: TGI [34]
19.7 µM: TGI [32]
32.9 µM: TGI [49]
25.8 µM: TGI [57]
27.9 µM: TGI [44]
22.6 µM: TGI [30]
17 µM: TGI [20]
40.4 µM: TGI [40]
25.6 µM: TGI [41]
31.3 µM: TGI [28]
27 µM: TGI [6] | TGI [18]
35.4 µM: TGI [22]
30 µM: TGI [26]
29.4 µM: TGI [19]
41.7 µM: TGI [39]
21.6 µM: TGI [23]
30.1 µM: TGI [55]
29.8 µM: TGI [1]
58.7 µM: TGI [52]

CCCOc1ccc2sc(NC(=O)OC)nc2c1
0.587 µM: TGI [27]
inactive: GI50 [1] > 28.2 µM | GI50 [2] 2.34 µM | GI50 [3] 4.2 µM | GI50 [4] > 25.1 µM | GI50 [5] 3.81 µM | GI50 [6] 2.87 µM | GI50 [7] 2.07 µM | GI50 [8] 0.838 µM | GI50 [9] 4.05 µM | GI50 [11] 24.5 µM | GI50 [12] 1.06 µM | GI50 [13] 0.611 µM | GI50 [14] 0.616 µM | GI50 [15] 4.9 µM | GI50 [16] 3.38 µM | GI50 [17] 3.48 µM | GI50 [18] 0.465 µM | GI50 [21] 0.627 µM | GI50 [22] 5.66 µM | GI50 [23] 1.26 µM | GI50 [24] 3.81 µM | GI50 [25] 1.08 µM | GI50 [26] > 100 µM | GI50 [28] 2.73 µM | GI50 [29] > 100 µM | GI50 [30] 5.77 µM | GI50 [31] 3.11 µM | GI50 [32] 1.69 µM | GI50 [33] 0.793 µM | GI50 [34] 2.27 µM | GI50 [35] > 100 µM | GI50 [36] > 100 µM | GI50 [37] 5 µM | GI50 [38] 3.48 µM | GI50 [39] 2.65 µM | GI50 [58] 2.71 µM | GI50 [40] > 100 µM | GI50 [41] 2.69 µM | GI50 [42] 2.91 µM | GI50 [43] 2.05 µM | GI50 [44] 18.6 µM | GI50 [45] 1.12 µM | GI50 [46] 4.36 µM | GI50 [47] 6.2 µM | GI50 [48] 10.2 µM | GI50 [49] 2.58 µM | GI50 [51] 0.544 µM | GI50 [52] 2.94 µM | GI50 [53] > 24.5 µM | GI50 [54] 2.42 µM | GI50 [55] > 100 µM | GI50 [56] 3.64 µM | GI50 [57] 6.07 µM
> 100 µM: TGI [1] | TGI [3] | TGI [4] | TGI [5] | TGI [6] | TGI [9] | TGI [11] | TGI [12] | TGI [13] | TGI [15] | TGI [16] | TGI [17] | TGI [18] | TGI [19] | TGI [20] | TGI [21] | TGI [22] | TGI [23] | TGI [24] | TGI [25] | TGI [26] | TGI [28] | TGI [29] | TGI [30] | TGI [31] | TGI [35] | TGI [36] | TGI [37] | TGI [38] | TGI [39] | TGI [40] | TGI [41] | TGI [42] | TGI [43] | TGI [44] | TGI [45] | TGI [46] | TGI [47] | TGI [48] | TGI [49] | TGI [50] | TGI [51] | TGI [52] | TGI [53] | TGI [54] | TGI [55] | TGI [56] | TGI [57]
> 29.3 µM: TGI [58]
13.5 µM: TGI [8]
> 27.1 µM: TGI [2]
5.24 µM: TGI [14]
19.9 µM: TGI [34]
> 28.4 µM: TGI [7]
> 25 µM: TGI [32]
active: GI50 [20] 0.419 µM | GI50 [27] 0.215 µM | GI50 [50] 0.36 µM
> 47.5 µM: TGI [33]
